Data: the supplement of paper PMC8967900

Key:
Assay in all cases: selective drug sensitivity score (sDSS, relative to normal bone marrow) (sDSS (score)); higher = more potent and effective on the cell line relative to normal bone marrow cells
Settings in all cases: 72 h
KASUMI-2 = test system: KASUMI-2
COG-LL-355h = test system: COG-LL-355h
NALL-1 = test system: NALL-1
DND-41 = test system: DND-41
HPB-ALL = test system: HPB-ALL
CCRF-CEM = test system: CCRF-CEM
PEER = test system: PEER
KASUMI-10 = test system: KASUMI-10
LC4-1 = test system: LC4-1
REH = test system: REH
P12-ICHIKAWA = test system: P12-ICHIKAWA
KASUMI-9 = test system: KASUMI-9
COG-LL-394h = test system: COG-LL-394h
MN-60 = test system: MN-60
COG-LL-332h = test system: COG-LL-332h
COG-LL-319h = test system: COG-LL-319h
MOLT-16 = test system: MOLT-16
TMD5 = test system: TMD5
SUP-B15 = test system: SUP-B15
ALL-SIL = test system: ALL-SIL
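Also: ALL cell lines in 384-well plates, five doses spanning 10,000-fold, each plate scaled between vehicle and 100 µmol/L benzalkonium chloride controls, sDSS an adapted area-under-curve metric.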

Row | SMILES | selective drug sensitivity score (KASUMI-2) | selective drug sensitivity score (COG-LL-355h) | selective drug sensitivity score (NALL-1) | selective drug sensitivity score (DND-41) | selective drug sensitivity score (HPB-ALL) | selective drug sensitivity score (CCRF-CEM) | selective drug sensitivity score (PEER) | selective drug sensitivity score (KASUMI-10) | selective drug sensitivity score (LC4-1) | selective drug sensitivity score (REH) | selective drug sensitivity score (P12-ICHIKAWA) | selective drug sensitivity score (KASUMI-9) | selective drug sensitivity score (COG-LL-394h) | selective drug sensitivity score (MN-60) | selective drug sensitivity score (COG-LL-332h) | selective drug sensitivity score (COG-LL-319h) | selective drug sensitivity score (MOLT-16) | selective drug sensitivity score (TMD5) | selective drug sensitivity score (SUP-B15) | selective drug sensitivity score (ALL-SIL)
1 | CN(C(=O)c1ccc(F)cc1C(F)(F)F)C1CCN(c2nnc(-c3ccnn3C)c3ccccc23)CC1 [Taladegib] (top concentration 10000 nM) | 11 | 1.48 | -1.12 | -1.12 | 7.08 | -0.82 | 1.88 | -1.12 | 4.58 | 3.58 | -0.22 | -1.12 | 2.08 | -1.12 | 1.08 | 5.78 | 3.88 | -1.02 | 3.78 | 0.08
2 | COCCNCc1ccc(-c2cc3nccc(Oc4ccc(NC(=O)C5(C(=O)Nc6ccc(F)cc6)CC5)cc4F)c3s2)nc1 [Sitravatinib] (top concentration 2500 nM) | -0.42 | 2.58 | 9.38 | 0.98 | -0.42 | 0.18 | 7.38 | 20 | 1.28 | 2.88 | 0.08 | 3.58 | 3.08 | 0.78 | 5.98 | -0.32 | -0.42 | 11 | 8.68 | 15.9
3 | CO[C@@H]1[C@H](N(C)C(=O)c2ccccc2)C[C@H]2O[C@]1(C)n1c3ccccc3c3c4c(c5c6ccccc6n2c5c31)C(=O)NC4 [Midostaurin] (top concentration 10000 nM) | -1.14 | 4.66 | 5.36 | 2.46 | 4.36 | 7.06 | 4.16 | 13.4 | 10.6 | 3.66 | 9.76 | 11.7 | -3.84 | -1.24 | 6.26 | 11.7 | 12.5 | 0.66 | 8.96 | 10.8
4 | CO[C@H]1C[C@@H]2CC[C@@H](C)[C@@](O)(O2)C(=O)C(=O)N2CCCC[C@H]2C(=O)O[C@H]([C@H](C)C[C@@H]2CC[C@@H](O)[C@H](OC)C2)CC(=O)[C@H](C)/C=C(\C)[C@@H](O)[C@@H](OC)C(=O)[C@H](C)C[C@H](C)/C=C/C=C/C=C/1C [Sirolimus] (top concentration 100 nM) | 2.84 | -0.66 | -3.66 | -0.16 | -2.46 | 3.34 | 3.74 | -3.76 | 1.74 | 0.54 | -2.46 | 4.74 | -3.76 | 0.44 | 3.04 | 5.94 | 5.04 | -3.56 | 5.04 | -0.86
5 | COC12C(COC(N)=O)C3=C(C(=O)C(C)=C(N)C3=O)N1CC1NC12 (stereo in doubt) [Mitomycin_C] (top concentration 10000 nM) | 4.24 | 0.44 | -2.86 | -2.86 | -1.16 | -2.86 | -2.86 | -2.86 | 2.34 | 3.74 | -2.86 | 4.04 | -2.86 | -2.86 | -2.86 | 9.74 | -2.86 | -1.96 | 1.24 | -2.86
6 | COCC[n+]1c2c(n(Cc3cnccn3)c1C)C(=O)c1ccccc1C2=O [Sepantronium_bromide] (top concentration 10000 nM) | 19.5 | 15.5 | 16.2 | -7.46 | 6.34 | 8.44 | 15.1 | 18.6 | 22.3 | 17.8 | 4.14 | 16.2 | -11.7 | 21.2 | 14.2 | 4.64 | 12.7 | 20.5 | 22.3 | -3.26
7 | CCNC(=O)C[C@@H]1N=C(c2ccc(Cl)cc2)c2cc(OC)ccc2-n2c(C)nnc21 [Molibresib] (top concentration 10000 nM) | -2.7 | 1.7 | 3.4 | -0.9 | 0.8 | 0.8 | -3 | 5.3 | 3.7 | 0.8 | 3 | 9.1 | -2.1 | 6.3 | -2.4 | 6.9 | 4.9 | 5.2 | 3.2 | -3.3
8 | NC(=O)/C(=C/n1cnc(-c2cc(C(F)(F)F)cc(C(F)(F)F)c2)n1)c1cncnc1 [Eltanexor] (top concentration 10000 nM) | 16.8 | 14.5 | 2.76 | 12.6 | 5.86 | 9.66 | 7.56 | 2.36 | 8.16 | 7.06 | 7.96 | 11.1 | 4.66 | 0.06 | 9.46 | 8.46 | 14.4 | -1.84 | 13.7 | 10.3
9 | C#Cc1cccc(Nc2ncnc3cc(OCCOC)c(OCCOC)cc23)c1 [Erlotinib] (top concentration 10000 nM) | 3.96 | 3.46 | -1.24 | -1.24 | 0.66 | 2.06 | 5.16 | 4.06 | 8.66 | -0.84 | 1.56 | 3.26 | 2.66 | 0.96 | 1.96 | 16.2 | 4.36 | -0.34 | 8.96 | 5.36
10 | Cn1ncc(Cl)c1-c1cc(C(=O)N[C@H](CN)Cc2ccc(F)c(F)c2)oc1Cl [Uprosertib] (top concentration 10000 nM) | 8.3 | 6.8 | -1.4 | -1.3 | -1.4 | 10.4 | 8.5 | -1.4 | -1.2 | 9.6 | 1.9 | 0.7 | -0.6 | -1.4 | 5.7 | 5.3 | 19.1 | 1.2 | -1.4 | 1.5
11 | CCCCCCCCCCCCCCCCOP(=O)([O-])OCC[N+](C)(C)C [Miltefosine] (top concentration 100000 nM) | 1.76 | 1.36 | 5.26 | 2.66 | -2.94 | -0.04 | 13.1 | -1.14 | 7.46 | 2.76 | 6.56 | 0.46 | -1.54 | 3.26 | 0.76 | 2.76 | -1.34 | -1.64 | 2.36 | 3.36
12 | O=C(Nc1cccc(NC(=O)c2cccc(O)c2O)c1)c1cccc(O)c1O [MST-312] (top concentration 10000 nM) | -1.6 | 3.2 | 0.8 | 7.2 | 8.7 | 7.1 | 9.4 | 1 | 8.1 | 7.4 | 6.6 | 5 | 1.1 | 9.8 | 13.1 | 12.8 | 17.3 | -3 | 9.5 | 9.6
13 | CCS(=O)(=O)N1CCN(c2ccc(Nc3ncc(C(N)=O)c(NC4CC4)n3)cc2)CC1 [Cerdulatinib] (top concentration 10000 nM) | -11.9 | -7.46 | -8.76 | 2.54 | -11.9 | -6.26 | -0.16 | 0.24 | -9.46 | -5.16 | -4.46 | -1.36 | -8.56 | -11.9 | -4.26 | 2.14 | -2.36 | -4.46 | 0.04 | -0.76
14 | CN(C)C1CCN(C(=O)c2ccc(NC(=O)Nc3ccc(-c4nc(N5CCOCC5)nc(N5CCOCC5)n4)cc3)cc2)CC1 [Gedatolisib] (top concentration 1000 nM) | 7.56 | 4.16 | 1.16 | 4.46 | -0.04 | 7.26 | 4.06 | 1.36 | 3.06 | 9.16 | 3.16 | 9.36 | 0.56 | 6.26 | 4.96 | -0.04 | 15.9 | 0.66 | 8.36 | 2.66
15 | Cc1[nH]nc(C(F)(F)F)c1Cc1sc2c(c1C(=O)N1C[C@](C)(O)CO1)c(=O)n(C)c(=O)n2C(C)C [AZD3965] (top concentration 1000 nM) | 3.8 | 0 | 3.8 | 0 | 0.1 | 0.3 | 0 | 0 | 1.5 | 3.6 | 0 | 2.7 | 0 | 0.9 | 0 | 0 | 0 | 2.6 | 7.1 | 0
16 | COc1cc(Nc2ncc3c(n2)-c2ccc(Cl)cc2C(c2c(F)cccc2OC)=NC3)ccc1C(=O)O [Alisertib] (top concentration 10000 nM) | 18.5 | 7.98 | 16.2 | 0.88 | 14.3 | 21.5 | 26.6 | 14.6 | 25.5 | 14.4 | 22.6 | 25 | 2.28 | -3.42 | 24.8 | 23.3 | 29.6 | 11 | 24 | 17.2
17 | Nc1ccccc1NC(=O)c1ccc(CNc2nccc(-c3cccnc3)n2)cc1 [Mocetinostat] (top concentration 10000 nM) | 6.74 | 4.24 | -3.16 | 7.44 | 8.64 | 5.54 | 9.24 | 6.74 | 9.14 | 3.94 | 6.24 | 9.14 | 2.74 | 1.34 | 7.04 | 14.7 | 9.04 | 1.44 | 9.64 | 9.14
18 | CC(C)Nc1cc(-c2c[nH]c(C(=O)N[C@H](CO)c3cccc(Cl)c3)c2)c(Cl)cn1 [Ulixertinib] (top concentration 10000 nM) | 7.82 | 3.82 | 3.92 | 4.72 | -2.68 | 2.82 | 3.62 | -3.08 | 0.32 | -1.08 | 1.22 | 1.82 | -0.18 | -4.38 | 1.92 | -0.78 | 2.42 | 2.12 | 6.62 | 3.02
